# From publication PMC5218480 (PLoS ONE, 2017)
# Tested on: MV-4-11 cells
# Assay: Gene expression microarray analysis (Affymetrix PrimeView) and GSEA
# Assay type: cell-based, human
# Conditions: gene VPS36; ACY-1035 1 mM; LIST F
smiles,measurement,value
Nc1ccc(-c2cccs2)cc1NC(=O)c1ccc2c(c1)cc(C1CC1)n2CCN1CCOCC1 [ACY-1035],"RFU, VPS36 (ProbeSet 11739960_a_at)",54.57 RFU
